Values quoted from earlier work in patent US20110091459A1, “IMIDAZOLE MODULATORS OF MUSCARINIC ACETYLCHOLINE RECEPTOR M3” (AUSPEX PHARMACEUTICALS, INC., priority 2008, published 2011).

Key:
[1] = metabolite formed by CYP2A6 mediated hydroxylation of the lactone ring
[2] = in vivo
[3] = in vivo; remark: listed apart in the source

half-life [3] [min] | SMILES | pharmacological activity [1] | adverse effects [2]
 | CC[C@@]1(O)C(=O)OC[C@H]1Cc1cncn1C [3-hydroxypilocarpine] | pharmacologically inactive | 
45.6 to 81 | CC[C@@H]1C(=O)OC[C@@H]1Cc1cncn1C [Pilocarpine, (3S,4R)-3-ethyl-4-((1-methyl-1H-imidazol-5-yl)methyl)dihydrofuran-2(3H)-one] |  | blurred vision, nightblindness, and pulmonary edema
